ChEMBL document CHEMBL1201862, “PubChem BioAssay data set” (2004)
Calls of active or inactive are those of the source.

Assays:
[1] = target: T1, Mannose-6-phosphate isomerase (Homo sapiens, UniProt P34949); experiment: MPI enzyme activity inhibition – biochemical, fluorescence intensity, coupled assay, primary screen (AID 1209)
T1 sequence (P34949 whole entry): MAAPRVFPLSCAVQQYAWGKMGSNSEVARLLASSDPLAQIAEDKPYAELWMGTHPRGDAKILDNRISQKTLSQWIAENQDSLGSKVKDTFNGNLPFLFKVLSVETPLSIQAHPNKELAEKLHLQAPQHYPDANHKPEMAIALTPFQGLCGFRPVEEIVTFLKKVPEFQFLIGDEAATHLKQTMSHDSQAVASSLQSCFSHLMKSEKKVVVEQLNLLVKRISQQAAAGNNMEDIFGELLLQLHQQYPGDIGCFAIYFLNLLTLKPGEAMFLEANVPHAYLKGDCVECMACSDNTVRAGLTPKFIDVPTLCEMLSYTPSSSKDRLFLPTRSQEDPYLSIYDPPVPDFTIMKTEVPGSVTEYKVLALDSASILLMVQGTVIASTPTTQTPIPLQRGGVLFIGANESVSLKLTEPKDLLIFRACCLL

[2] = target: T1, Mannose-6-phosphate isomerase; experiment: MPI inhibition at elevated mannose 6-phosphate – biochemical, fluorescence intensity, high mannose 6-phosphate, primary screen (AID 1220)
[3] = target: T2, Replicative DNA helicase DnaB (Mycobacterium tuberculosis, UniProt P9WMR3); experiment: DnaB intein splicing inhibitors, dose response, biochemical, cell-free fluorescence (AID 449749); type: functional
T2 sequence (P9WMR3 whole entry): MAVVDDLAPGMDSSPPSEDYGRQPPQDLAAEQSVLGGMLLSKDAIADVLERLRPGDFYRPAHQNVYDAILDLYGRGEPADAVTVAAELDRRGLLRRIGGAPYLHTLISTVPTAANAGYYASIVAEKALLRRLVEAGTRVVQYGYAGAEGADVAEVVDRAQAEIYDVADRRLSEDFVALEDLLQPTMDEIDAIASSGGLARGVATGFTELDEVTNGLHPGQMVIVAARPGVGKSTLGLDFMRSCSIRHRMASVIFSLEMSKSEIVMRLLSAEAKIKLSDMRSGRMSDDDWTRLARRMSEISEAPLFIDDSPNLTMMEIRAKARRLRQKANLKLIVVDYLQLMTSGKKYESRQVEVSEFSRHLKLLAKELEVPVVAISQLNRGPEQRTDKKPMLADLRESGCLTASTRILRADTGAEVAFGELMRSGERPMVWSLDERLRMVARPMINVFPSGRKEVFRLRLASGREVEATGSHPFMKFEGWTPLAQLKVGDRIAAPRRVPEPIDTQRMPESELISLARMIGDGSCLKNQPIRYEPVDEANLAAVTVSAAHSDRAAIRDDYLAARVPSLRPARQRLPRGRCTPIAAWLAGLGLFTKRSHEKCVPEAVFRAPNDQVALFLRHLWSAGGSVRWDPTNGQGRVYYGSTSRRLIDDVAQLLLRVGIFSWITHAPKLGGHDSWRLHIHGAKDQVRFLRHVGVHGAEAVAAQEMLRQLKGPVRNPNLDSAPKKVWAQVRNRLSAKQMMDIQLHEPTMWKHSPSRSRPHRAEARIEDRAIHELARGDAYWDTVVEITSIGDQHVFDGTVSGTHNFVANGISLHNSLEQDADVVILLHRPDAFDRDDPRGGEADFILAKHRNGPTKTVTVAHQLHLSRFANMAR

[4] = target: T3, Protein RecA (Mycobacterium tuberculosis, UniProt P9WHJ3); experiment: Fluorescence Cell-Free Homogeneous Dose Retest to Identify Inhibitors of RecA-Intein Splicing Activity. [Related pubchem assays (depositor defined):AID2097, AID2223, AID489010, AID492950]; type: functional
T3 sequence (P9WHJ3 whole entry): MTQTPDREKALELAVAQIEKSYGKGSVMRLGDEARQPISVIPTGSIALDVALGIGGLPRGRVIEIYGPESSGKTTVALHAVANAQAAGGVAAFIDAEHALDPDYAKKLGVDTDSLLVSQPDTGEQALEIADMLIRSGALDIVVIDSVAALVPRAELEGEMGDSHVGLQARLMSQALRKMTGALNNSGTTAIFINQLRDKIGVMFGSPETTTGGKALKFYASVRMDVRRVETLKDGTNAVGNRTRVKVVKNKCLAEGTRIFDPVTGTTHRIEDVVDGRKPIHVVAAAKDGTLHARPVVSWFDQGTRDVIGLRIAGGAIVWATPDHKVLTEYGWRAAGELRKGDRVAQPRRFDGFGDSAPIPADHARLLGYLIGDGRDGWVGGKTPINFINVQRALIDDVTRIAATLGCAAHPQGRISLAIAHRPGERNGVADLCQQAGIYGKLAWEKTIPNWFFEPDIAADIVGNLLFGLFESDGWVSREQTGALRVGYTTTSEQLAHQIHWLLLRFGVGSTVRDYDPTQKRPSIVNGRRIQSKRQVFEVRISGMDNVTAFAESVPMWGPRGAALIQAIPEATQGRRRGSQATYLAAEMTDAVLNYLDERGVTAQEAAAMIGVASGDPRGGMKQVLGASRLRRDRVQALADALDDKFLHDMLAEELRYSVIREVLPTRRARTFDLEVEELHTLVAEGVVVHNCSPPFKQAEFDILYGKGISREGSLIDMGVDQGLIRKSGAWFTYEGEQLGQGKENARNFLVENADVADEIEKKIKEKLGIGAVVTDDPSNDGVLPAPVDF

[5] = target: Genome polyprotein (dengue virus type 2, UniProt P29990); experiment: flavivirus cap methylation enzyme inhibition – biochemical, confirmation dose response, primary screen (AID 588689); type: functional
[6] = tested on: Streptococcus; experiment: Luminescence Microorganism-Based Dose Response Follow up to Identify Compounds Cytotoxic to Streptococcus. [Related pubchem assays: 1677 (Project Summary), 1915, 1914, 1902 (Retest at Dose), 1900 (Counter Screen), 1662 (Primary HTS)]; type: functional, organism-based
[7] = target: Neuropeptide Y receptor type 1 (Homo sapiens, UniProt P25929); type: functional;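 also: HEK293 cells with a CNG channel challenged with NPY then isoproterenol; potency as antagonist that reverses NPY suppression of cAMP signal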
[8] = Trypanosoma cruzi growth suppression in host cells – NIH3T3 host cells, beta-gal luminescence, confirmation (AID 2044); type: functional, cell-based;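 also: intracellular parasites grown in NIH/3T3 mouse fibroblasts as host cells; luminescent beta-galactosidase reporter signal from transgenic T. cruzi replicating inside host cells; inhibitors lower the luminescence signal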
[9] = target: Neuropeptide Y receptor type 2 (Homo sapiens, UniProt P49146); type: functional, cell-based;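 also: HEK293 cells expressing the receptor and a CNG channel; stimulus was NPY near EC95 followed by isoproterenol to raise cAMP; antagonist potency measured as restoring cAMP signal that NPY suppresses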
[10] = viability of PTEN-deleted HCT116 cells – cell-based, HCT116 PTEN knockout, dose response (AID 1047); type: functional;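 also: HCT116 colon tumor cells with PTEN knocked out; cells exposed to compound for 60 hours before readout; potency for loss of cell viability measured by luminescence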
[11] = NIH3T3 cell viability loss – ATP luminescence, mouse fibroblasts, counter-screen, dose response (AID 2010); type: functional, cell-based;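 also: cells exposed to compound for about 90 hours before reading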
[12] = viability of HCT116 lacking mutant beta-catenin – cell-based, human colon tumor, dose response (AID 1045); type: functional;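 also: HCT116 colon tumor cells with beta catenin knocked out; cells exposed to compound for 60 hours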
[13] = target: RNA-editing ligase 1, mitochondrial (Trypanosoma brucei brucei, UniProt P86926); experiment: inhibition of trypanosome RNA editing ligase – biochemical, fluorescence, Trypanosoma brucei, dose response (AID 1117295); type: functional
[14] = target: Melanin-concentrating hormone receptor 1 (Homo sapiens, UniProt Q99705); experiment: Fluorescence-based counterscreen for antagonists of the G-protein coupled receptor 7 (GPR7): cell-based high throughput dose response assay to identify antagonists of the melanin-concentrating hormone receptor 1 (MCHR1).; type: functional
[15] = Counterscreen for IDE inhibitors: Luminescence-based cell-based high throughput dose response assay to identify compounds that are cytotoxic to HEK cells. [Related pubchem assays: 434962 (Primary screen (IDE inhibitors in singlicate)), 449730 (Counterscreen (Cytotoxicity in triplicate)), 435028 (Confirmation (IDE inhibitors in triplicate)) …; type: functional; details: HEK293
[16] = target: T4, Insulin-degrading enzyme (Homo sapiens, UniProt P14735); experiment: Dose Response: Fluorescence polarization-based cell-based high throughput dose response assay for inhibitors of insulin-degrading enzyme (IDE). [Related pubchem assays: 434962 (Primary screen (IDE inhibitors in singlicate)), 449730 (Counterscreen (Cytotoxicity in triplicate)), 435028 (Confirmation (IDE inhibitors in triplicate)), 434984 (Summary …; type: functional
T4 sequence (P14735 whole entry): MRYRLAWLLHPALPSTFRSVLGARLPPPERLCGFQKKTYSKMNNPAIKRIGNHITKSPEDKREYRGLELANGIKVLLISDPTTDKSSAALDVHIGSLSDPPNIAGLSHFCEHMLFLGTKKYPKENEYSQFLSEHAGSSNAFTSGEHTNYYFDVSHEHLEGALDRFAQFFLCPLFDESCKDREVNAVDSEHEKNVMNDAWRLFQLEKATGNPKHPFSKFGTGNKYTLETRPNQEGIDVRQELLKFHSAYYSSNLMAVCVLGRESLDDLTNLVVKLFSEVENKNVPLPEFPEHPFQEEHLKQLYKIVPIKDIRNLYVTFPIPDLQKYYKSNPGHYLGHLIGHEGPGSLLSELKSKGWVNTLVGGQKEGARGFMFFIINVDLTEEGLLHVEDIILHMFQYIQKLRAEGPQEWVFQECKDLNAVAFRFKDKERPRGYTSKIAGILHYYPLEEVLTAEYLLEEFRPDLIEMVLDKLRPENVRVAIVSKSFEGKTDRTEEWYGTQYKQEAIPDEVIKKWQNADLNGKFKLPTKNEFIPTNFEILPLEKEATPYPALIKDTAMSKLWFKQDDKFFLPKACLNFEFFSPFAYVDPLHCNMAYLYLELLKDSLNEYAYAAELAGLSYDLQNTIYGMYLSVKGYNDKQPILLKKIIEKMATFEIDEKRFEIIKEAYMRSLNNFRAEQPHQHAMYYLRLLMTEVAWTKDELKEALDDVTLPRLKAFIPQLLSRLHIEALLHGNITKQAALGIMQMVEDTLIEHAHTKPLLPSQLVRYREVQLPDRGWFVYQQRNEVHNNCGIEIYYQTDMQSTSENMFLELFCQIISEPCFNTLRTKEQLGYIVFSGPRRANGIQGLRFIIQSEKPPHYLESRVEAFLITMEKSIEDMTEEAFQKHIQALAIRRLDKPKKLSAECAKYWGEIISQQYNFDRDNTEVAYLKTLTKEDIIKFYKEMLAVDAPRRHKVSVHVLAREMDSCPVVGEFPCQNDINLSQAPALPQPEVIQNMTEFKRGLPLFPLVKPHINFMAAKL

[17] = target: T5, Protein skinhead-1 (Caenorhabditis elegans, UniProt P34707); type: functional
T5 sequence (P34707 whole entry): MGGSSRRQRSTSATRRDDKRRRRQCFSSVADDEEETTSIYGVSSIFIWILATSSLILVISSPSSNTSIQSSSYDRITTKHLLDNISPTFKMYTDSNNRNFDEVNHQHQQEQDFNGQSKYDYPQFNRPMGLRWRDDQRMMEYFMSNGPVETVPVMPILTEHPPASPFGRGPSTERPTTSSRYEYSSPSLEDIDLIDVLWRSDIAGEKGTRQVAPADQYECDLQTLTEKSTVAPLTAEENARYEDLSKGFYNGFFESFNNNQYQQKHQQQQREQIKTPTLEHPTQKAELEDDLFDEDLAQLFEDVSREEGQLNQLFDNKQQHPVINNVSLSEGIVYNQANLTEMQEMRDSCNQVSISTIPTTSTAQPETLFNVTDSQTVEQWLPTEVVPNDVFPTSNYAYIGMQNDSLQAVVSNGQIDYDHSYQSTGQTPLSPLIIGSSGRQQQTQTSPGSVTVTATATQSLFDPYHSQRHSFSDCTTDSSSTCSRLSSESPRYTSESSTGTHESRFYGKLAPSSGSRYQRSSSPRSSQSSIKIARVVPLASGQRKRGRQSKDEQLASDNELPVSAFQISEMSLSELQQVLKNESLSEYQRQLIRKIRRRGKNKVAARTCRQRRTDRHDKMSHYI

[18] = target: Luciferin 4-monooxygenase (Photinus pyralis, UniProt P08659); experiment: inhibition of purified Photinus pyralis luciferase – biochemical, luminescence, dose response (AID 1891)
[19] = Luminescence Cell-Based Dose Confirmation HTS to Identify Inhibitors of Platelet Dense Granule Release. [Related pubchem assays: 1663 (Primary HTS), 1678 (Summary of Project)]; type: functional
[20] = tested on: Streptococcus sp. 'group A'; experiment: Streptococcus pyogenes SK(-)GAS viability under kanamycin – luminescence, BacTiterGlo, confirmation, counter-screen for streptokinase expression inhibitor project, dose response (AID 1900); type: functional, organism-based
[21] = target: T6, Streptokinase A (Streptococcus pyogenes serotype M1, UniProt P10520); experiment: viability-normalized secreted streptokinase activity reduction – plasminogen activation absorbance, OD405, dose response (AID 1914); type: functional, Streptococcus pyogenes M1 GAS;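 also: secreted streptokinase activity via plasminogen activation per viability signal from cell pellet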
T6 sequence (P10520 whole entry): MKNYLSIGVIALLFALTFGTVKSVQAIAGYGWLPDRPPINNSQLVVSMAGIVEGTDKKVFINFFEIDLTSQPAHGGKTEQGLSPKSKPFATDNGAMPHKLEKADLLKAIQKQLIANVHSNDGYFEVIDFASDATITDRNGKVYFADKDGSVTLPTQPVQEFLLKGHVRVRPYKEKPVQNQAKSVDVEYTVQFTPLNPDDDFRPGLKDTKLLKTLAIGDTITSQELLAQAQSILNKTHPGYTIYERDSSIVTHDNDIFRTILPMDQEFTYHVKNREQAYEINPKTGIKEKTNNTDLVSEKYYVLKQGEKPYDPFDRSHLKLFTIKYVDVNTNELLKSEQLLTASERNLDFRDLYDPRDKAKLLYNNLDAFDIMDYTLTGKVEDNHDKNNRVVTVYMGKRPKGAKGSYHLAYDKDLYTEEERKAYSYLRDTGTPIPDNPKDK

[22] = tested on: Streptococcus; experiment: GAS UMAA2166 growth inhibition – luminescence, BacTiterGlo, counter-screen for streptokinase expression inhibitor project, dose response (AID 1915); type: functional, organism-based;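 also: potency for reduction of bacterial viability or growth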

Sequence of Neuropeptide Y receptor type 1 (P25929 whole entry): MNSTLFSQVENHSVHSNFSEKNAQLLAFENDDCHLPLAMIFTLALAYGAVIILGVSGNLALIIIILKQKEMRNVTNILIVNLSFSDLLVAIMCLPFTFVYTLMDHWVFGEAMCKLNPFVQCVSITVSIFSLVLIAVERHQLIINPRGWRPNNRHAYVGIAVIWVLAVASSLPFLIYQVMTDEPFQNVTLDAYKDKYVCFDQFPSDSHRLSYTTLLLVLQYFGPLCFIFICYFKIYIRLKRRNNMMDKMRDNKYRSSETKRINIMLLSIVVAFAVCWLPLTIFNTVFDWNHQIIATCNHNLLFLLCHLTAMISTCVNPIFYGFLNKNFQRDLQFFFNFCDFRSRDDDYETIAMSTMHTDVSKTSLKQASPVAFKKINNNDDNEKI
Sequence of Neuropeptide Y receptor type 2 (P49146 whole entry): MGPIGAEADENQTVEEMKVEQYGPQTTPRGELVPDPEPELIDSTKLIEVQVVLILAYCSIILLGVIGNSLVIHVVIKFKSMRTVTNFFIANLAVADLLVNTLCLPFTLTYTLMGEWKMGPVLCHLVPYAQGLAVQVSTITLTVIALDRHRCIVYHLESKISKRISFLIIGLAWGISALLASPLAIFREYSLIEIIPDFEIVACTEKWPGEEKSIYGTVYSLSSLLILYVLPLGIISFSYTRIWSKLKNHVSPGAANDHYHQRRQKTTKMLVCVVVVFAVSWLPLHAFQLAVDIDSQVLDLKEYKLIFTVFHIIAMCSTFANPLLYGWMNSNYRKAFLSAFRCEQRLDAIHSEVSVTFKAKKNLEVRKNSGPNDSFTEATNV
Sequence of RNA-editing ligase 1, mitochondrial (P86926 whole entry): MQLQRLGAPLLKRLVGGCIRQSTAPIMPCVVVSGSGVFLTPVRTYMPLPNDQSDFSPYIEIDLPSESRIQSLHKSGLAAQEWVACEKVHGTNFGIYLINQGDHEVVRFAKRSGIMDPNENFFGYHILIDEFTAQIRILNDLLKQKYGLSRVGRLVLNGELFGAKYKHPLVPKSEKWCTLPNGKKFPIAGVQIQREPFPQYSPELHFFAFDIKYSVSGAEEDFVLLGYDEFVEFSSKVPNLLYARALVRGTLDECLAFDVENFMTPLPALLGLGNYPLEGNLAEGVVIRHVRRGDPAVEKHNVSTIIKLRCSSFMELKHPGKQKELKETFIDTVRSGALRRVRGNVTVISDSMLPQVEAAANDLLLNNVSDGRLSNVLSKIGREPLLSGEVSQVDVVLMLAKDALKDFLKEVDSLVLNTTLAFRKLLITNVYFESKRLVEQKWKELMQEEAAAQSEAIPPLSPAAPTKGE
Sequence of Melanin-concentrating hormone receptor 1 (Q99705 whole entry): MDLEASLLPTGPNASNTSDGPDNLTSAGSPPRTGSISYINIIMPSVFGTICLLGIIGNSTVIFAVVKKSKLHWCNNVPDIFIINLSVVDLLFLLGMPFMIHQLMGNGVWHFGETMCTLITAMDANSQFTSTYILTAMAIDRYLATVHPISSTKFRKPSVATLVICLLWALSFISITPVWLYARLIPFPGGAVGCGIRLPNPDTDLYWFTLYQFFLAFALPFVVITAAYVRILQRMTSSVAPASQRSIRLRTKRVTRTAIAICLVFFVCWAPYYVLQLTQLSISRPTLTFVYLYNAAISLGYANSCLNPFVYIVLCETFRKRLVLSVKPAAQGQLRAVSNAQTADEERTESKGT
Sequence of Genome polyprotein (P29990 2492-3391 limits assumed): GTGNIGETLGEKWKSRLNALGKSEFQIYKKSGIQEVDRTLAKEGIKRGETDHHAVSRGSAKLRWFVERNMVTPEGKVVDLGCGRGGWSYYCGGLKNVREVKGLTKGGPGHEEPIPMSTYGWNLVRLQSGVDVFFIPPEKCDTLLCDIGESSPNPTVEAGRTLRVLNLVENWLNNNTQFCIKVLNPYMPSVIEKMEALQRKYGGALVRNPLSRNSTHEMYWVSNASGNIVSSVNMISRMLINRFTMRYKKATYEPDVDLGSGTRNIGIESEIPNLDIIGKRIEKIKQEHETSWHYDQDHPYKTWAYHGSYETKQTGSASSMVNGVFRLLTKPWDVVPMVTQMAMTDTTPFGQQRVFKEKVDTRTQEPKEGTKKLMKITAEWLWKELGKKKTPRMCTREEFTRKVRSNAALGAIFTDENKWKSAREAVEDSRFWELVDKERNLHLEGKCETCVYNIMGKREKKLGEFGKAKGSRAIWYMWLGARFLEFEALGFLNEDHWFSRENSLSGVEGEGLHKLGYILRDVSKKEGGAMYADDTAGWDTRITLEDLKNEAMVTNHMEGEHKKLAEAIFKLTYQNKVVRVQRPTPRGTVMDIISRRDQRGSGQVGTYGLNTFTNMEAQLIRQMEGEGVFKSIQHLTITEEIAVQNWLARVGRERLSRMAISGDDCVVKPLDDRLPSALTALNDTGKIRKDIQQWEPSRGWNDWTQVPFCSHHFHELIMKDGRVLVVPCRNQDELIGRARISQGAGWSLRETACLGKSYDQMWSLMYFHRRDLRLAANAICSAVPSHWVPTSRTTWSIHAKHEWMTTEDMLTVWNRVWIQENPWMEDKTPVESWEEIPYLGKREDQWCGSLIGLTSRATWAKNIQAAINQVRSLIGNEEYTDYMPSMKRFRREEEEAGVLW
Sequence of Luciferin 4-monooxygenase (P08659 whole entry): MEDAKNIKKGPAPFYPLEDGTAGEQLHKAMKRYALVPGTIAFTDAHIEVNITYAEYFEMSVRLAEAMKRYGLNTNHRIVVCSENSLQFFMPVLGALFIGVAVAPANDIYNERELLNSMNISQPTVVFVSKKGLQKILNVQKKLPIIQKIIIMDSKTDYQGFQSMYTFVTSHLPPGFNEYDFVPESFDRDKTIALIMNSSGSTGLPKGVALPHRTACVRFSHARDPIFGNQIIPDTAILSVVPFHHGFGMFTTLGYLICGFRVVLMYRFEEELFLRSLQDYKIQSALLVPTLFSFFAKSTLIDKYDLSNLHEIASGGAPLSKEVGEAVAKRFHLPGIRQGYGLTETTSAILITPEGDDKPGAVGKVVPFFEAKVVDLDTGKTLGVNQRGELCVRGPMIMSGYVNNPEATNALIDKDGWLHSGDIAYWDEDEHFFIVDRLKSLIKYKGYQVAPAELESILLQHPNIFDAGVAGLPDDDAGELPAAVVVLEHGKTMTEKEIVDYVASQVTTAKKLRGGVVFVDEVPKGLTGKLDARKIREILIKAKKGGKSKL

Cn1c(/N=C/c2c(O)ccc3ccccc23)nc2ccccc21
IC50 [1]: > 50 µM (not active)
IC50 [2]: 14.8 µM (active)
AC50 [3]: 7.16 µM (active)
EC50 [4]: 5.19 µM (active)
IC50 [5]: 9.6 µM (active)

O=C(CSc1ccccc1)N1c2ccccc2Sc2ccccc21
EC50 [6]: 239 µM (active)

Cc1cc(Cl)c(OCCCNCc2ccccc2)c(Br)c1
IC50 [7]: 5.39 µM (active)
EC50 [8]: 1.86 µM (active)
IC50 [9]: 5.15 µM (active)
EC50 [10]: 21.9 µM (active)
EC50 [11]: 14.3 µM (active)
EC50 [12]: 16.5 µM (active)
IC50 [13]: > 96.6 µM (inactive)

CC(C)Cc1cc(C(=O)N2CCCC(CO)(Cc3ccc(F)cc3F)C2)[nH]n1 (configuration not stated)
IC50 [14]: 33 µM (not active)

CC(OC(=O)/C(C#N)=C/c1ccc(N(C)C)cc1)C(=O)N(C)c1ccccc1 (configuration not stated)
IC50 [15]: 40.3 µM (not active)
IC50 [16]: 21.4 µM (not active)
IC50 [17]: > 100 µM (inactive)

CC1(C)Oc2ccc3ccc(=O)oc3c2-c2cnoc21
IC50 [1]: > 50 µM (not active)
IC50 [2]: > 50 µM (not active)

Cc1ccc(-c2cc(C(=O)Nc3ccc4c(c3)OCCO4)c3ccccc3n2)cc1
IC50 [7]: 5.01 µM (active)
EC50 [18]: 1.06 µM (active)
EC50 [19]: 16.9 µM (active)
IC50 [9]: 5.35 µM (active)

Cc1noc(C)c1CSc1nc2sc(C)c(C)c2c(=O)n1C1CCCC1
EC50 [20]: 5.22 µM (active)
EC50 [6]: > 500 µM (not active)
EC50 [21]: 3.31 µM (active)
EC50 [22]: > 150 µM (not active)
